From patent US10919941B2, “Functional lipid constructs” (KODE BIOTECH LIMITED, priority 2007, dated 2021)
No end group written: not given here.

Tests used:
Type in all cases: cell-based, human
[1] = system: sera reactive with modified RBCs; assay: Neutralisation of reactive sera with free peptide, retested against modified RBCs (BioVue); design: key: 0 or ‘−’ no agglutination; 0 or ‘−’ no agglutination; 1+ or 3=very weak agglutination; 1+ or 3=very weak agglutination; 2+ or 5=weak agglutination; 2+ or 5=weak agglutination; 3+ or 8=moderate strong agglutination; 3+ or 8=moderate strong agglutination; 4+ or 10/12=strong agglutination; 4+ or 10/12=strong agglutination; 4+ or 10/12=strong agglutination
Excerpt: Optionally, where F is a peptide, the method includes the preliminary step of: • Adding an amount of the peptide to the sample of the serum; where the amount of the peptide is sufficient to neutralize non-specific agglutination or confirm specificity of the reactive antibody.

[2] = system: Miltenberger Antibody Positive Panel; assay: Reactivity of modified RBCs against the Miltenberger Antibody Positive Panel; design: key to score vs panel 15 TAP2 / score vs panel 4 T7202 / score vs panel 8 T5896 / score vs panel 2 T217 / score vs panel 3 T165 / score vs panel 14 TAP1 / score vs panel 10 Mia / score vs panel 11 Mur / score vs panel 12 Gam / score vs panel 6 T6025 / score vs panel 7 T8445 / score vs panel 9 MIII / score vs panel 13 BoxH / reactivity with Panel Serum #7 (T8445) / agglutination score, Panel Serum #7 (T8445): 0 or ‘−’ no agglutination; 0 or ‘−’ no agglutination; 1+ or 3=very weak agglutination; 1+ or 3=very weak agglutination; 2+ or 5=weak agglutination; 2+ or 5=weak agglutination; 3+ or 8=moderate strong agglutination; 3+ or 8=moderate strong agglutination; 4+ or 10/12=strong agglutination; 4+ or 10/12=strong agglutination; 4+ or 10/12=strong agglutination; details: for agglutination score, Panel Serum #7 (T8445): cells modified at 50 μg/ml, 2 hour 37° C., BioVue AHG cards; for reactivity with Panel Serum #7 (T8445): construct 50 μg/ml (2 hours, 37° C.)
Protocol: (§1) Red blood cells are modified by mixing 1 part by volume of washed packed red blood cells with 1 part by volume of peptide-lipid construct dispersed at a concentration of 10 to 1000 pg/ml in cell media (Celpresol™).
(§2) The suspensions are either: • 1. incubated for 2 hours at 37° C. before being washed and suspended in a cell medium for serological analysis at a concentration of 0.8 to 3% (Method 1); or • 2. incubated for 3 to 4 hours at room temperature (circa 25° C.) followed by 18 hours at 4° C. before being washed and suspended in a cell medium for serological analysis at a concentration of 0.8 to 3% (Method 2).
(§3) Serological reactions are graded or scored by either of two established systems (0 or ‘−’ no agglutination, 1+ or 3=very weak agglutination, 2+ or 5=weak agglutination, 3+ or 8=moderate strong agglutination, 4+ or 10/12=strong agglutination)
(§4) Serological platforms used are Tube (addition of reagents and reactants into plastic or glass serology tubes and after appropriate incubations, washing and centrifugation observing reactions macroscopically by eye and a 10× magnification eyepiece and scoring) and BioVue™ (addition of reactants into cassettes containing beads (including some reactants) and after appropriate incubations and centrifugation observing the reaction patterns trapped within the Gel matrix). BioVue is the serological column agglutination platform of Ortho-Clinical Diagnostics. Diamed is the serological column agglutination platform of Diamed AG.

[3] = system: Miltenberger antibody positive sera; assay: BioVue AHG card column agglutination serology of modified red blood cells; design: key: 0 or ‘−’ no agglutination; 0 or ‘−’ no agglutination; 1+ or 3=very weak agglutination; 1+ or 3=very weak agglutination; 2+ or 5=weak agglutination; 2+ or 5=weak agglutination; 3+ or 8=moderate strong agglutination; 3+ or 8=moderate strong agglutination; 4+ or 10/12=strong agglutination; 4+ or 10/12=strong agglutination; 4+ or 10/12=strong agglutination; details: construct 100 μg/ml
Protocol: as §1, §2, §3, §4

antibody negative serums = assay: False positive reactions of modified RBCs with antibody negative serums/plasma; design: key to Reaction score BioVue AHG, PAC samples 1-46, 49, 50, 52, 53 / Reaction score BioVue AHG, PAC sample 47 / Reaction score BioVue AHG, PAC sample 48 / Reaction score BioVue AHG, PAC sample 51 / agglutination score, T series serum 2 / agglutination score, T series serum 42 / agglutination score, T series serum 63 / agglutination score, T series serum 62 / agglutination score, T series serum 7 / agglutination score, T series serum 20 / agglutination score, T series serum 48 / agglutination score, T series serum 22 / agglutination score, T series serum 39 / agglutination score, T series serum 23 / agglutination score, T series serum 30 / agglutination score, T series serum 4 / agglutination score, T series serum 31 / agglutination score, T series serum 44 / agglutination score, T series serum 61 / agglutination score, T series serum 18 / agglutination score, T series serum 21 / agglutination score, T series serum 28 / agglutination score, T series serum 55 / agglutination score, false positive serum T18 / agglutination score, false positive serum T21 / agglutination score, false positive serum T28 / agglutination score, false positive serum T55 / agglutination score, false positive serum T78 / agglutination score, false positive serum T92: 0 or ‘−’ no agglutination; 0 or ‘−’ no agglutination; 1+ or 3=very weak agglutination; 1+ or 3=very weak agglutination; 2+ or 5=weak agglutination; 2+ or 5=weak agglutination; 3+ or 8=moderate strong agglutination; 3+ or 8=moderate strong agglutination; 4+ or 10/12=strong agglutination; 4+ or 10/12=strong agglutination; 4+ or 10/12=strong agglutination; details: BioVue AHG cards
[4] = 40 μl plasma + 10 μl neutraliser 1.0 mg/ml, 30 minutes 37° C., cells modified with M22
[5] = 40 μl plasma + 10 μl neutraliser 1.0 mg/ml, 30 minutes 37° C., head: cells modified with the peptide-lipid construct M22 (title: M28)
[6] = cells modified at 500 μg/ml (Method 1), BioVue cards
[7] = serum neutralised with peptide SSQTNDKHKRDTY (10 μL of 1 mg/ml to 50 μL, 30 minutes 37° C.), BioVue cards
[8] = cells modified with the peptide-lipid construct M28, AHG test in BioVue
[9] = cells modified at 50 μg/ml, 2 hour 37° C.
[10] = larger series = 102, cells modified at 50 μg/ml, 2 hour 37° C.

Substance: VMYASSG?
- Post-neutralisation serology, PAC74 [1, 4]: 8
- Post-neutralisation serology, TAP1 [1, 4]: 8
- Post-neutralisation serology, PAC70 [1, 5]: 8
- Post-neutralisation serology, PAC71 [1, 5]: 5
- Post-neutralisation serology, PAC72 [1, 5]: 5
- Post-neutralisation serology, TAP2 [1, 5]: 8

Substance: M13: DOPE peptide-lipid construct: MUTK peptide SSQTNDKHKRDTY, leader c (Cys), spacer PEG6 (SSQTNDKHKRDTYC; also: DOPE peptide-lipid construct via leader Cys, spacer PEG6)
- agglutination score, serum #3, serum alone [1, 6]: 8
- agglutination score, serum #34, serum alone [1, 6]: 8
- agglutination score, serum #37, serum alone [1, 6]: 8
- agglutination score, serum #42, serum alone [1, 6]: 8
- agglutination score, serum #3, serum + peptide [1, 7]: 0
- agglutination score, serum #34, serum + peptide [1, 7]: 0
- agglutination score, serum #37, serum + peptide [1, 7]: 0
- agglutination score, serum #42, serum + peptide [1, 7]: 0
- score vs panel 2 T217 ([2]; Table 8, construct 250 μg/ml): 8
- score vs panel 3 T165 ([2]; Table 8, construct 250 μg/ml): 0
- score vs panel 4 T7202 ([2]; Table 8, construct 250 μg/ml): 8
- score vs panel 6 T6025 ([2]; Table 8, construct 250 μg/ml): 8
- score vs panel 7 T8445 ([2]; Table 8, construct 250 μg/ml): 0
- score vs panel 8 T5896 ([2]; Table 8, construct 250 μg/ml): 3
- score vs panel 9 MIII ([2]; Table 8, construct 250 μg/ml): 0
- score vs panel 10 Mia ([2]; Table 8, construct 250 μg/ml): 0
- score vs panel 11 Mur ([2]; Table 8, construct 250 μg/ml): 0
- score vs panel 12 Gam ([2]; Table 8, construct 250 μg/ml): 0
- score vs panel 13 BoxH ([2]; Table 8, construct 250 μg/ml): 8

Substance: M28: DOPE peptide-lipid construct: Mur peptide TYPAHTANE, leader c, spacer CMG(2) (TYPAHTANEC; also: DOPE peptide-lipid construct via leader Cys, spacer CMG(2))
- TAP 2 Serum BioVue AHG score [3]: 10
- Pre-neutralisation serology, PAC70 [1, 8]: 8
- Pre-neutralisation serology, PAC71 [1, 8]: 5
- Pre-neutralisation serology, PAC72 [1, 8]: 5
- Pre-neutralisation serology, TAP2 [1, 8]: 8
- score vs panel 2 T217 ([2]; Table 9, construct 50 μg/ml): 0
- score vs panel 4 T7202 ([2]; Table 9, construct 50 μg/ml): 10
- score vs panel 7 T8445 ([2]; Table 9, construct 50 μg/ml): 8
- score vs panel 8 T5896 ([2]; Table 9, construct 50 μg/ml): 0
- score vs panel 15 TAP2 ([2]; Table 9, construct 50 μg/ml): 8
- agglutination score, Panel Serum #7 (T8445) [2]: 8
- reactivity with Panel Serum #7 (T8445) [2]: 8
- % positive (antibody negative serums; T series reactives (n = 58)): 9%
- agglutination score, T series serum 2 (antibody negative serums; [9]): 10
- agglutination score, T series serum 4 (antibody negative serums; [9]): 8
- agglutination score, T series serum 7 (antibody negative serums; [9]): 0
- agglutination score, T series serum 18 (antibody negative serums; [9]): 0
- agglutination score, T series serum 20 (antibody negative serums; [9]): 0
- agglutination score, T series serum 21 (antibody negative serums; [9]): 0
- agglutination score, T series serum 22 (antibody negative serums; [9]): 0
- agglutination score, T series serum 23 (antibody negative serums; [9]): 0
- agglutination score, T series serum 28 (antibody negative serums; [9]): 0
- agglutination score, T series serum 30 (antibody negative serums; [9]): 0
- agglutination score, T series serum 31 (antibody negative serums; [9]): 8
- agglutination score, T series serum 39 (antibody negative serums; [9]): 0
- agglutination score, T series serum 42 (antibody negative serums; [9]): 0
- agglutination score, T series serum 44 (antibody negative serums; [9]): 10
- agglutination score, T series serum 48 (antibody negative serums; [9]): 0
- agglutination score, T series serum 55 (antibody negative serums; [9]): 0
- agglutination score, T series serum 61 (antibody negative serums; [9]): 10
- agglutination score, T series serum 62 (antibody negative serums; [9]): 0
- agglutination score, T series serum 63 (antibody negative serums; [9]): 0

Substance: M26: DOPE peptide-lipid construct: Mur peptide YPAHTANEV, leader c, spacer CMG(2) (YPAHTANEVC; also: DOPE peptide-lipid construct via leader Cys, spacer CMG(2))
- score vs panel 2 T217 ([2]; Table 9, construct 50 μg/ml): 0
- score vs panel 3 T165 ([2]; Table 9, construct 50 μg/ml): 10
- score vs panel 4 T7202 ([2]; Table 9, construct 50 μg/ml): 0
- score vs panel 6 T6025 ([2]; Table 9, construct 50 μg/ml): 8
- score vs panel 7 T8445 ([2]; Table 9, construct 50 μg/ml): 8
- score vs panel 8 T5896 ([2]; Table 9, construct 50 μg/ml): 0
- score vs panel 9 MIII ([2]; Table 9, construct 50 μg/ml): 0
- score vs panel 10 Mia ([2]; Table 9, construct 50 μg/ml): 0
- score vs panel 11 Mur ([2]; Table 9, construct 50 μg/ml): 0
- score vs panel 12 Gam ([2]; Table 9, construct 50 μg/ml): 0
- score vs panel 15 TAP2 ([2]; Table 9, construct 50 μg/ml): 3
- agglutination score, Panel Serum #7 (T8445) [2]: 10
- reactivity with Panel Serum #7 (T8445) [2]: 10
- agglutination score, false positive serum T18 (antibody negative serums; [10]): 5
- agglutination score, false positive serum T21 (antibody negative serums; [10]): 10
- agglutination score, false positive serum T28 (antibody negative serums; [10]): 12
- agglutination score, false positive serum T55 (antibody negative serums; [10]): 10
- agglutination score, false positive serum T78 (antibody negative serums; [10]): 10
- agglutination score, false positive serum T92 (antibody negative serums; [10]): 12

Substance: M25: DOPE peptide-lipid construct: Mur peptide Tyr Pro Ala His Thr Ala Asn Gln, leader c, spacer CMG(2)
- score vs panel 2 T217 ([2]; Table 9, construct 50 μg/ml): 0
- score vs panel 3 T165 ([2]; Table 9, construct 50 μg/ml): 3
- score vs panel 4 T7202 ([2]; Table 9, construct 50 μg/ml): 0
- score vs panel 6 T6025 ([2]; Table 9, construct 50 μg/ml): 0
- score vs panel 7 T8445 ([2]; Table 9, construct 50 μg/ml): 3
- score vs panel 8 T5896 ([2]; Table 9, construct 50 μg/ml): 0
- score vs panel 9 MIII ([2]; Table 9, construct 50 μg/ml): 0
- score vs panel 10 Mia ([2]; Table 9, construct 50 μg/ml): 0
- score vs panel 11 Mur ([2]; Table 9, construct 50 μg/ml): 0
- score vs panel 12 Gam ([2]; Table 9, construct 50 μg/ml): 0
- score vs panel 15 TAP2 ([2]; Table 9, construct 50 μg/ml): 8
- agglutination score, Panel Serum #7 (T8445) [2]: 3
- reactivity with Panel Serum #7 (T8445) [2]: 3
- agglutination score, false positive serum T78 (antibody negative serums; [10]): 5
